Test results as given in ChEMBL document CHEMBL1201862, “PubChem BioAssay data set” (2004).
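Step 1: Grow cells in 96-well plates. Step 2: Expose to compound for 48 hours at 5 concentrations. Step 3: Interpolate endpoints linearly; if unreached, use highest concentration. GI50 marks 50% less growth.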 Activity calls are given as the source filed them. Cut-off read from the data, not from the text of the source: active = GI50 up to about 1.1 µM and inactive = higher. Non-standard residues stand in square brackets, D forms with d. Residues, ends and D or L forms follow the SMILES beside them. *: point of attachment. hSer = N[CH](CCO)C(=O)O; Boc = CC(C)(C)OC(=O)*

Columns and labels:
Test in all cases: DTP human tumour cell line panel, 48 h
Malme-3M = system: Malme-3M
HCC 2998 = system: HCC 2998
HT-29 = system: HT-29
SF-268 = system: SF-268
HCT-15 = system: HCT-15
U-251 = system: U-251
NCI-H226 = system: NCI-H226
M14 = system: M14
UACC-62 = system: UACC-62
MDA-MB-435 = system: MDA-MB-435
ACHN = system: ACHN
HOP-62 = system: HOP-62
COLO 205 = system: COLO 205
Hs-578T = system: Hs-578T
SNB-75 = system: SNB-75
HOP-92 = system: HOP-92
TK-10 = system: TK-10
A549 = system: A549
OVCAR-3 = system: OVCAR-3
HCT-116 = system: HCT-116

## O=c1c2ccccc2nc(Cc2nc(-c3ccc(Cl)cc3)cs2)n1-c1ccc(Cl)cc1
Malme-3M
  GI50: > 100 µM (inactive)
HCC 2998
  GI50: 80 µM (inactive)
HT-29
  GI50: 85.7 µM (inactive)
SF-268
  GI50: 62.4 µM (inactive)
HCT-15
  GI50: 31.5 µM
U-251
  GI50: 54.5 µM (inactive)
NCI-H226
  GI50: 88.5 µM (inactive)
M14
  GI50: > 100 µM (inactive)
UACC-62
  GI50: 5.78 µM (inactive)
MDA-MB-435
  GI50: 46.3 µM (inactive)
ACHN
  GI50: 37 µM (inactive)
HOP-62
  GI50: > 100 µM (inactive)
COLO 205
  GI50: 49.5 µM (inactive)
Hs-578T
  GI50: > 100 µM (inactive)
SNB-75
  GI50: 79.6 µM (inactive)
HOP-92
  GI50: 9.64 µM (inactive)
TK-10
  GI50: > 100 µM (inactive)
A549
  GI50: 50.6 µM (inactive)
OVCAR-3
  GI50: 94.2 µM (inactive)
HCT-116
  GI50: 37.2 µM (inactive)

## C/C(=N\NC(=O)N/N=C(\C)c1ccccn1)c1ccccn1
Malme-3M
  GI50: > 100 µM (inactive)
HCC 2998
  GI50: 0.52 µM (active)
HT-29
  GI50: < 0.01 µM (active)
SF-268
  GI50: 4.18 µM (inactive)
HCT-15
  GI50: 37.8 µM
U-251
  GI50: 20.3 µM (inactive)
NCI-H226
  GI50: 31 µM (inactive)
M14
  GI50: 0.205 µM (active)
UACC-62
  GI50: 40.9 µM (inactive)
MDA-MB-435
  GI50: 0.0526 µM (active)
ACHN
  GI50: 18.2 µM (inactive)
HOP-62
  GI50: 0.512 µM (active)
COLO 205
  GI50: 0.069 µM (active)
Hs-578T
  GI50: > 38.6 µM (inactive)
SNB-75
  GI50: > 100 µM (inactive)
HOP-92
  GI50: 0.279 µM (active)
TK-10
  GI50: 0.11 µM (active)
A549
  GI50: 4.88 µM (inactive)
OVCAR-3
  GI50: 45.1 µM (inactive)
HCT-116
  GI50: 0.336 µM (active)

## COCCC(NC(=O)C(CC(C)C)NC(=O)OC(C)(C)C)C(N)=O (stereo not drawn) (Boc-Leu-[hSer](Me)-NH2; configuration not given here)
Malme-3M
  GI50: > 100 µM (inactive)
HCC 2998
  GI50: > 100 µM (inactive)
HT-29
  GI50: > 100 µM (inactive)
SF-268
  GI50: > 100 µM (inactive)
HCT-15
  GI50: > 100 µM
U-251
  GI50: > 100 µM (inactive)
NCI-H226
  GI50: > 100 µM (inactive)
M14
  GI50: > 100 µM (inactive)
UACC-62
  GI50: > 100 µM (inactive)
MDA-MB-435
  GI50: > 100 µM (inactive)
ACHN
  GI50: > 100 µM (inactive)
HOP-62
  GI50: > 100 µM (inactive)
COLO 205
  GI50: > 100 µM (inactive)
Hs-578T
  GI50: > 100 µM (inactive)
SNB-75
  GI50: > 100 µM (inactive)
HOP-92
  GI50: > 100 µM (inactive)
TK-10
  GI50: > 100 µM (inactive)
A549
  GI50: > 100 µM (inactive)
OVCAR-3
  GI50: > 100 µM (inactive)
HCT-116
  GI50: > 100 µM (inactive)
